Key:
[1] = test system: B16F10 cells (mouse melanocytes); test: inhibition of α-MSH-stimulated melanin synthesis in cells; format: cell-based; conditions: 72 hours; for Melanin amount (of Control): no treatment = 100; for increase in melanin induced by α-MSH stimulation: 100 nM α-MSH, peptide 1 and 10 μM
Experimental: • 1. […] Specifically, 1×10^5 B16F10 cells (mouse melanocytes) were seeded into each well of a 6-well microplate with DMEM serum medium. The cells were cultured in an incubator at a temperature of 37° C. and with 5% CO2 for 24 hours. […] The concentration of each peptide in the medium was set to 1 and 10 μM. […] Afterward, to measure the amount of extracellular melanin, the supernatant was taken, and the absorbance of free melanin in the medium was measured at a wavelength of 400 nm. To measure the amount of intracellular melanin, the cells were washed with PBS after removing the medium, and then the cells were lysed with 1 M NaOH at a temperature of 60° C. for 30 minutes, and the absorbance was measured at a wavelength of 400 nm. The amount of free melanin and intracellular melanin measured by absorbance were quantified, and the results are shown in Table 2. • 3.

[2] = test system: human dermal fibroblasts; test: immunofluorescence analysis of intracellular collagen synthesis (anti-COL1A2); format: cell-based; conditions: peptide 1 and 10 μM, 24 hours, compared to untreated control group (FIG. 3)
Experimental: • 1. Immunofluorescence analysis was performed to evaluate the effects of the peptides of Example 1 on intracellular collagen synthesis. • 2. Specifically, 4.5×10^4 human dermal fibroblasts were seeded into each well of a 24-well microplate along with CEFOgro Human MSC Growth Medium). The cells were cultured in an incubator at a temperature of 37° C. and with 5% CO2 for 24 hours. Next, the cells were treated with each of the peptides of Example 1, and the cells were incubated under the same conditions for 24 hours. The concentration of each peptide in the medium was set to 1 and 10 μM. Out of two control groups, one received no treatment, and the other was treated with 1 μM retinol. The cells in each well were washed with PBS and fixed by treatment with 4% formaldehyde for 15 minutes, and then the cells were treated with 0.1% TritonX-100 for 5 minutes to increase antibody permeability into the cells. The cells were washed with PBS solution and treated with anti-COL1A2 polyclonal antibodies (Santa Cruz, CA, USA) for 1 hour. Next, the cells were treated with mouse anti-goat IgG-FITC for 40 minutes. To stain the cytoskeleton, the cells were treated with Phalloidin-Rhodamin for 40 minutes. After mounting with DAPI-added reagent for cell nucleus staining, the cells were observed using a fluorescence microscope (Logosbio/CelenaS, Korea) and quantified using a program (NIS-Eliments-3.1).

[3] = test system: P53 and POLII (RNA Polymerase II); test: in-situ proximity ligation assay (PLA) of physical binding between P53 and POLII in HaCaT cells; format: cell-based, human; conditions: peptide 1 and 10 μM, 30 minutes, compared to untreated control group (FIG. 2)
Experimental: • 1. To confirm whether the peptides of Example 1 increase the transcriptional activity of P53, which was related to cell anti-aging, cells were treated with the peptides of Example 1, and then the effects of the peptides on the physical binding between P53 and POLII (RNA Polymerase II) was evaluated using an in-situ proximity ligation assay (PLA) method. • 2. Specifically, 4.5×10^4 HaCaT cells (human keratinocytes) were seeded into each well of a 24-well microplate with DMEM serum medium. The cells were cultured in an incubator at a temperature of 37° C. and with 5% CO2 for 24 hours. Next, the cells were treated with each of the peptides of Example 1, and the cells were incubated under the same conditions for 30 minutes. The concentration of each peptide in the medium was set to 1 and 10 μM. The control group received no treatment. Afterward, the cells in each well were washed with PBS and fixed by treatment with 2% formaldehyde for 15 minutes, and then the cells were treated with 0.1% TritonX-100 for 5 minutes to increase antibody permeability into the cells. […] Afterward, the physical interaction of P53 and POLII antibodies was quantified by measuring luminescence signals (PLA signals) detected in each cell using a fluorescence microscope (Logosbio/CelenaS, Korea), and the results are shown in FIG. 2. • 4. […]

[4] = test system: RAR and RXR; test: in-situ proximity ligation assay (PLA) of physical binding between RAR and RXR in HaCaT cells; format: cell-based, human; conditions: peptide 1 and 10 μM, 30 minutes, compared to untreated control group (FIG. 1)
Experimental: • 1. Retinol regulates the transcription of target DNA by inducing the binding between Retinoic acid receptor (RAR) and Retinoid X Receptor (RXR). To confirm whether the peptides of Example 1 activate the binding between RXR/RAR, the effects of the peptides on the physical binding between RAR and RXR were evaluated using an in-situ proximity ligation assay (PLA) method. • 2. Specifically, 4.5×10^4 HaCaT cells (human keratinocytes) were seeded into each well of a 24-well microplate with DMEM serum medium. The cells were cultured in an incubator at a temperature of 37° C. and with 5% CO2 for 24 hours. Next, the cells were treated with each of the peptides of Example 1, and the cells were incubated under the same conditions for 30 minutes. The concentration of each peptide in the medium was set to 1 and 10 μM. The control group received no treatment. Afterward, the cells in each well were washed with PBS and fixed by treatment with 2% formaldehyde for 15 minutes, and then the cells were treated with 0.1% TritonX-100 for 5 minutes to increase antibody permeability into the cells. […] Afterward, the physical interaction of RAR and RXR antibodies was quantified by measuring luminescence signals (PLA signals) detected in each cell using a fluorescence microscope (Logosbio/CelenaS, Korea), and the results are shown in FIG. 1. • 4. […]

[5] = α-MSH (100 nM) + test substance 1 uM
[6] = α-MSH (100 nM) + test substance 10 uM

For `CC1=C(/C=C/C(C)=C/C=C/C(C)=C/CO)C(C)(C)CCC1` [Retinol, retinol, reference compound], the Melanin amount (of Control) [1, 5] was 114%.

With Ile-Gln-Glu-Met (IQEM) [Raragin A] the collagen synthesis [2] was “significantly increased”, the “physical binding between P53 and POLII (PLA signals)” value [3] was “increased” and the “physical binding between RAR and RXR (PLA signals)” value [4] was “increased”. For the same compound, the “increase in melanin induced by α-MSH stimulation” value [1] was “reduced”, the Melanin amount (of Control) [1, 5] was 111% and the Melanin amount (of Control) [1, 6] was 107%.

In the case of Thr-Val-Glu-Phe (TVEF) [Raragin B], the collagen synthesis [2] is reported as “significantly increased”, the “physical binding between P53 and POLII (PLA signals)” value [3] is reported as “increased” and the “physical binding between RAR and RXR (PLA signals)” value [4] is reported as “increased”. The “increase in melanin induced by α-MSH stimulation” value [1] was “reduced”, the Melanin amount (of Control) [1, 5] was 109% and the Melanin amount (of Control) [1, 6] was 106%.
